As a reminder, the IC50 is the concentration that inhibits the measured activity by half. In general, MIC refers to the lowest concentration that inhibits growth of the organism. Lower therefore signals a more susceptible organism.

The subject of one assay is Escherichia coli. In words: Antimicrobial agar plate diffusion assay. In kind it is cell-based.
Another assay deals with NF-κB p65. In words: ELISA based NF-κB p65 inhibitory assay in HeLa cells. In kind it is cell-based. The note with it: for NF-κB inhibition activity (in words): HeLa cells, p65 ELISA; for IC50: Homo sapiens, HeLa, read-out: NF-κB inhibitory activity IC50. A general note: ELISA stands for enzyme-linked immunosorbent assay.
In another assay the test system is Staphylococcus aureus. In words: Antimicrobial agar plate diffusion assay. In kind it is cell-based.
Another assay relates to Bacillus subtilis. In words: Antimicrobial agar plate diffusion assay. In kind it is cell-based.
Another assay concerns TAK1. The note with it: reported previously; cited from earlier work.

Take `CC1(C)S[C@@H]2[C@H](NC(=O)Cc3ccccc3)C(=O)N2[C@H]1C(=O)O` [penicillin G, reference compound]: the “lowest concentration at which biological activity could be detected” value in the assay on Escherichia coli (positive controls) is listed as 100 μg/mL.

With `C[C@H]1C/C=C\C(=O)[C@@H](O)[C@@H](O)C/C=C/c2cc(O)cc(O)c2C(=O)O1` [compound 1, 15-O-desmethyl-5Z-7-oxozeaenol], the “NF-κB inhibition activity (in words)” value in the assay with NF-κB p65 is listed as “sub-micromolar”.

`COc1cc(O)c2c(c1)/C=C/C[C@H](O)[C@H](O)[C@H](O)/C=C/C[C@H](C)OC2=O` [compound 3, 7-epi-zeaenol]: the IC50 in the assay on NF-κB p65 was over 50 µM. In the assay with Escherichia coli, this compound came in with an MIC of over 500 µg/mL.

For the compound `COc1cc(O)c2c(c1)/C=C/C[C@H](O)[C@H](O)[C@@H](O)/C=C/C[C@H](C)OC2=O` [compound 2, zeaenol], the MIC against Staphylococcus aureus and in the assay with Bacillus subtilis was over 500 µg/mL each time. In addition, in the assay on NF-κB p65, the IC50 was over 50 µM.

In the case of `COc1cc(O)c2c(c1)/C=C/C[C@H](O)[C@H](O)C(=O)/C=C\C[C@H](C)OC2=O` [compound 5, 5Z-7-oxozeaenol], the MIC with Staphylococcus aureus was over 500 µg/mL. The “NF-κB inhibition activity (in words)” value in the assay on NF-κB p65 was “sub-micromolar”. Besides, the TAK1 inhibition result with TAK1 is on record as “potent inhibitor”.

The values above are taken from paper PMC3111092 (Journal of natural products, 2011).
